Laboratory results as given in patent publication US5674886A, “Triazolylated teritiary amine compound or salt thereof” (Yamanouchi Pharmaceutical Co., Ltd., priority 1991, dated 1997).

Columns and labels:
[1] = test system: cortisol production, rabbit adrenal cultured cells; experiment: In vitro inhibition of cortisol production (ACTH-stimulated rabbit adrenal cultured cells); type: cell-based; conditions: Oryctolagus cuniculus
Protocol: (5) In vitro inhibition of cortisol production:
The inhibitory activity was measured in accordance with the method described in Endocrinology, 114 (2) 486 (1984). The inhibitory activity of a test compound was determined based on inhibition of the cortisol production produced by stimulation of first-generation of rabit adrenal cultured cells by ACTH. The amount of cortisol was measured by RIA.
4. In vitro inhibition of cortisol production in rabbit:
IC50 value of the compounds for in vitro inhibition of cortisol production was obtained by the above-mentioned experimental method (5), and the results obtained are shown in Table 3.

aldosterone production = experiment: In vivo inhibition of aldosterone production in rats (ACTH-stimulated blood aldosterone); design: species or system rat; conditions: 100 mg/kg, five rats, one-way ANOVA
Protocol: (b) In vivo inhibition of aldosterone production in rats:
The inhibitory activity was measured in accordance with the method described in J. Steroid Biochem., 34 567 (1989). The inhibitory activity of a test compound was determined based on inhibition of the blood aldosterone to be increased by stimulation by ACTH in rats. The amount of aldosterone was measured by RIA.
3. In vivo inhibition of aldosterone production in rats:
By the above-mentioned experimental method (4-b), aldosterone production inhibitory activity in rats was measured.
The statistical significance of value was analyzed by using one-way ANOVA. The results mean that the compounds of the present invention are highly safe compounds with few harmful side effects also in the in vivo test as well.

[2] = test system: aldosterone production, rat adrenal cultured cells; experiment: In vitro inhibition of aldosterone production (ACTH-stimulated rat adrenal cultured cells); type: cell-based; conditions: read-out: IC50, Rat aldosterone inhibitory activity (B)
Protocol: (a) In vitro inhibition of aldosterone production:
The activity was measured in accordance with the method described in J. Vet. Pharmacol. Therap., 11 345 (1988). The inhibition activity of the test compound was determined based on the inhibition of aldosterone production produced by stimulation of first-generation of rat adrenal cultured cells by ACTH. The amount of aldosterone was measured by RIA.
(§1) 2. Selectivity of In vitro inhibition of rat ovarian aromatase and in vitro aldosterone production in rat:
(§2) IC50 values for in vitro inhibition of rat aromatase and […] inhibition of rat aldosterone production were measured in accordance with the above-mentioned experimental methods (1-a) and (4-a), respectively. The selectivity indicates a ratio of IC50 value for rat aldosterone production to IC50 value for rat aromatase.

[3] = target: T1, rat aromatase (rat ovarian microsomes) (Rattus norvegicus, UniProt P22443); experiment: In vitro inhibition of aromatase obtained from rat ovary; type: biochemical
T1 construct: in rat ovarian microsomes; from tissue; host or cells: rat ovary, microsomes
T1 sequence (P22443 1-508): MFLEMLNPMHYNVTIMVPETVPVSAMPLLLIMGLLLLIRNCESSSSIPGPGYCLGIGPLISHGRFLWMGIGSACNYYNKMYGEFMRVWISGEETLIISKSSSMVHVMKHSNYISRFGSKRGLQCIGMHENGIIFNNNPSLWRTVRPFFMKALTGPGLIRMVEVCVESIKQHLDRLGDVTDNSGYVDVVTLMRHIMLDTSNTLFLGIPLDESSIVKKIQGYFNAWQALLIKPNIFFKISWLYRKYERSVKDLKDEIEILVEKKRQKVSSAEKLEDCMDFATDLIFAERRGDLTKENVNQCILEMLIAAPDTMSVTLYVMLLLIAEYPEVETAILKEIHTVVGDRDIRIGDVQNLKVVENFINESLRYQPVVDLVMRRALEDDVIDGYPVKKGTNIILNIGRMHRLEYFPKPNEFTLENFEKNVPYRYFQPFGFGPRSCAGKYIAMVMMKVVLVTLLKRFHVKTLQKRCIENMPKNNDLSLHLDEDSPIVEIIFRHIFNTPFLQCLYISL
Protocol: (a) Inhibition of aromatase obtained from rat ovary:
The activity was measured in accordance with the method described in J. Biol. Chem., 249 5364 (1974).
The IC50 value of the test compound on aromatase inhibition was determined based on inhibition of ^3 H2 O to be released from [1,2-^3 H] androstenedione in rat ovarian microsomes.
as §1, §2

[4] = Metabolism: plasma concentration of the non-changed compound after oral administration to rats; type: in vivo; conditions: rat, 3 mg/kg oral
Description: From the results, it is understood that the compound of the present invention has an excellent oral absorbability and that the effect of the absorbed compound lasts long. Thus, the compound has a good profile as a medicine.

[5] = target: T2, aromatase from human placental microsomes (Homo sapiens, UniProt P11511); experiment: In vitro inhibition of aromatase in human placenta microsomes; type: biochemical; conditions: [1,2-3H] androstenedione
T2 construct: in human placenta microsomes; from tissue; host or cells: human placenta, microsomes
T2 sequence (P11511 1-503): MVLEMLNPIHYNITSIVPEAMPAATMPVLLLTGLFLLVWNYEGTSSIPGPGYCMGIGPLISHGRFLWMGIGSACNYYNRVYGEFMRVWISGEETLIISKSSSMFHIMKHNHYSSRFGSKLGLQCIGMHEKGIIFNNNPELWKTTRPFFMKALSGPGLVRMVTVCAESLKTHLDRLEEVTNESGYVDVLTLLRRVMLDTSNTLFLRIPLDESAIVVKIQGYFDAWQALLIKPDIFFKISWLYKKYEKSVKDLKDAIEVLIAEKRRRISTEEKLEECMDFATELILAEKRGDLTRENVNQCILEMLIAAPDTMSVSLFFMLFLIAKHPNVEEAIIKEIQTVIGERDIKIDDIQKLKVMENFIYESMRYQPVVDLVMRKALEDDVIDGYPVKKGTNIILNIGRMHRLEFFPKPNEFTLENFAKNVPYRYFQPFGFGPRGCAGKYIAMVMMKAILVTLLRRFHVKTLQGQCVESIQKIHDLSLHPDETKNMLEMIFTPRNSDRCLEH
Protocol: (b) Inhibition of aromatase obtained from human placenta
The activity was measured in accordance with the method described in Endocrine Research, 16 (2) 253 (1990).
The inhibition activity of the compound was determined based on the inhibition of ^3 H2 O to be released from [1,2-^3 H] androstenedione in human placenta microsomes.
1. In vitro inhibition of aromatase in human placenta microsomes:
IC50 value for ex vivo inhibition of aromatase from human placental microsomes was obtained in accordance with the above-mentioned experimental method (1-b), and the results obtained are shown in Table 1.

Compound | IC50 [1] [nM] | inhibition of aldosterone production in rats (significance) (aldosterone production) | IC50 [2] [nM] | IC50 ([3]; rat ovarian microsomes, in vitro, read-out: IC50, Rat aromatase inhibitory activity (A)) [nM] | Selectivity (B/A) ([3]; ratio of IC50 for rat aldosterone production to IC50 for rat aromatase) | half-life ([4]; read-out: extinction half time (T1/2) (converted)) [h] | Cmax ([4]; read-out: maximum value (Cmax) of the concentration of the non-changed compound in the plasma) [ng/mL] | IC50 [5] [nM]
N#Cc1ccc(N(Cc2ccc(Br)cc2)n2cnnc2)cc1 [Example 15, 4-[N-(4-bromobenzyl)-N-(4-cyanophenyl)amino]-4H-1,2,4-triazole] | 4000 | did not inhibit aldosterone production significantly | 2250 | 0.37 | 6100 | 11 | 2880 | 0.13
O=[N+]([O-])c1ccc(CN(c2ccc([N+](=O)[O-])cc2)n2cnnc2)cc1 [Example 10, 4-[N-(4-nitrobenzyl)-N-(4-nitrophenyl)amino]-4H-1,2,4-triazole] | 7000 | did not inhibit aldosterone production significantly |  |  |  |  |  | 0.11
O=[N+]([O-])c1ccc(N(Cc2ccc(Br)cc2)n2cnnc2)cc1 [Example 12, 4-[N-(4-bromobenzyl)-N-(4-nitrophenyl)amino]-4H-1,2,4-triazole] |  | did not inhibit aldosterone production significantly |  |  |  |  |  | 0.03
